Seven molecules from patent publication US8952005B2, “Substituted 1,3-benzothiazol-2(3H)-ones and [1,3]thiazolo[5,4-B]pyridin-2(1H)-ones as positive allosteric modulators of mGluR2” (Merck Sharp & Dohme Corp., priority 2010, dated 2015) can be followed below.

In the assay the target is T1, recombinant human mGluR2 (Homo sapiens, UniProt Q14416).
T1 construct: expressed in transfected cells
In words: FLIPR Ca2+ mobilization assay, potentiation of glutamate response at mGluR2. The assay is classed as cell-based. The settings on record: potentiation after addition of EC20 concentration of glutamate (900 nM); CHO dhfr- cells expressing human mGluR2 and Gα16. As to the method: Inhibition constants are determined as follows. The compounds of the present invention may be tested in a fluorescence laser imaging plate reader (FLIPR) based assay. This assay is a common functional assay to monitor Ca^2+ mobilization in whole cells expressing recombinant receptor coupled with a promiscuous G-protein. CHO dhfr− cells stably expressing recombinant human mGluR2 and Gα16 loaded with Fluo-4 AM (Invitrogen, Carlsbad Calif.) are treated with dose responses of compounds and the Ca^2+ response is monitored on a FLIPR384 (Molecular Devices, Sunnydale Calif.) for agonist activity. The potentiation response is monitored after a subsequent addition of an EC20 concentration of glutamate (900 nM). The maximum calcium response at each concentration of compound for agonist or potentiation are plotted as dose responses and the curves are fitted with a four parameters logistic equation giving EC50 and Hill coefficient using the iterative non linear curve fitting software program.

T1 sequence (Q14416 19-872): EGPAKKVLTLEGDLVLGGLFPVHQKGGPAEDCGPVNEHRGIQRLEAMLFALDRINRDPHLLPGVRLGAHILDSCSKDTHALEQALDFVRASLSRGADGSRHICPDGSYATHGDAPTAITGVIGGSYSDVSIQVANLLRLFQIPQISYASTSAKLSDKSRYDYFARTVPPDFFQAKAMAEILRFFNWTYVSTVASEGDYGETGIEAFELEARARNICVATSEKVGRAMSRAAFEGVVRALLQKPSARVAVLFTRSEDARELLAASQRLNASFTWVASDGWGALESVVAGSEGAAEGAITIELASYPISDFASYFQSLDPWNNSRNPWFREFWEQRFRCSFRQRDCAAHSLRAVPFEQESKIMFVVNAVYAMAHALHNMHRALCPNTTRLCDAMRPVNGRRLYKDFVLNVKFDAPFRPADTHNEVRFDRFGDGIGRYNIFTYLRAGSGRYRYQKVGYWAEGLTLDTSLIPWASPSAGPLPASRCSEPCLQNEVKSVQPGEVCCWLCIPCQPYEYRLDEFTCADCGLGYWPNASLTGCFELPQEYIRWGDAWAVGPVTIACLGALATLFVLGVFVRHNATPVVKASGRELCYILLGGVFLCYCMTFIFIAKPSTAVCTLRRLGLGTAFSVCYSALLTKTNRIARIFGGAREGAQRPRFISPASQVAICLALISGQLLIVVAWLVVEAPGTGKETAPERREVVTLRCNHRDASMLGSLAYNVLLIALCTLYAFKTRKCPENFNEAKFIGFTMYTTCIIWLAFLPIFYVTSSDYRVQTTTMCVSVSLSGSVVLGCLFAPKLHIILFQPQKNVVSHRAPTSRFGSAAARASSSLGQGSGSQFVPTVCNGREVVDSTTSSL

For `Cc1ccc(C(C)(C)O)cc1-c1ccc2c(n1)sc(=O)n2CC1CC1(F)F` (stereo not shown) [Example 2-3, 1-{[2,2-difluorocyclopropyl]methyl}-5-[5-(1-hydroxy-1-methylethyl)-2-methylphenyl][1,3]thiazolo[5,4-b]pyridin-2(1H)-one], the EC50 came out at 153 nM. Regarding `CC(C)(C)Cn1c(=O)sc2nc(-c3ccccc3C#N)ccc21` [Example 3-2, 2-[1-(2,2-dimethylpropyl)-2-oxo-1,2-dihydro[1,3]thiazolo[5,4-b]pyridin-5-yl]benzonitrile], the EC50 was 34 nM. The value for `N#Cc1ccccc1-c1ccc2c(c1)sc(=O)n2CC1CC1(F)F` (stereo not shown) [Example 5-2, 2-(3-{[2,2-difluorocyclopropyl]methyl}-2-oxo-2,3-dihydro-1,3-benzothiazol-6-yl)benzonitrile] was 17 nM; that for `O=c1sc2cc(-c3cccc(N4CCS(=O)(=O)CC4)c3)ccc2n1CC1CC1` [Example 6-16, 3-(cyclopropylmethyl)-6-[3-(1,1-dioxidothiomorpholin-4-yl)phenyl]-1,3-benzothiazol-2(3H)-one] was 65 nM. The value for `N#Cc1ccccc1-c1ccc2c(c1)sc(=O)n2Cc1ccc(Cl)cc1F` [Example 9-15, 2-[3-(4-chloro-2-fluorobenzyl)-2-oxo-2,3-dihydro-1,3-benzothiazol-6-yl]benzonitrile] was 248 nM.

On to `N#Cc1cc(Oc2ccc(C#N)c(-c3ccc4c(n3)sc(=O)n4CC3CC3(F)F)c2)ccn1` (stereo not shown) [Example 16-3, 4-(4-cyano-3-{1-[(2,2-difluorocyclopropyl)methyl]-2-oxo-1,2-dihydro[1,3]thiazolo[5,4-b]pyridin-5-yl}phenoxy)pyridine-2-carbonitrile], for which the EC50 worked out at 15 nM. In the case of `N#Cc1cccnc1Oc1ccc2c(c1)sc(=O)n2CC1CC1(F)F` (stereo not shown) [Example 18-3, 2-({3-[(2,2-difluorocyclopropyl)methyl]-2-oxo-2,3-dihydro-1,3-benzothiazol-6-yl}oxy)nicotinonitrile], the 50% effective concentration (EC50) was 306 nM.
